Here are results for 15 compounds from paper PMC10525797, “Streptomyces rugosispiralis sp. nov., a Novel Actinobacterium Isolated from Peat Swamp Forest Soil That Produces Ansamycin Derivatives and Nocardamines” (Antibiotics, 2023).

≈ marks a conversion by molar mass, not a printed value.

One series concerns Bacillus cereus. The series can be described thus: Antibacterial resazurin microplate assay (REMA), anti-B. cereus. The format is cell-based. The note with it: inactive = at the final concentration of 50 μg/mL. (In general: Resazurin is reduced to fluorescent resorufin, in cell work by metabolically active cells.)
Series [1] has as its system Mycobacterium tuberculosis strain H37Ra. As to the kind of experiment: microbe, parasite or virus in culture. The format is cell-based. The note with it: for MIC: Mycobacterium tuberculosis, H37RA, read-out: Anti-M. tuberculosis MIC.
Series [2] relates to Plasmodium falciparum (K-1, multi-drug resistant strain). As to the kind of experiment: microbe, parasite or virus in culture. The format is cell-based. Particulars: for Anti-P. falciparum IC50: K-1 multi-drug resistant strain, inactive = at the final concentration of 50 μg/mL; for IC50: Plasmodium falciparum, read-out: Anti-P. falciparum IC50.
The test system of another series is Syphacia oblevata. Details: method as in PMID 5459626. The note with it: cited from earlier work.
In another series the test system is Plasmodium berghei. Details: method as in PMID 5459626. Particulars: cited from earlier work.
The test system of series [3] is HPV-18-positive HeLa cells. Set-up: method as in PMID 28862674. Particulars: cervical cancer cell line; cited from earlier work.
Another series relates to Setosphaeria turcica. Set-up: method as in PMID 28862674. Particulars: plant pathogen; cited from earlier work.
A short description of series [4]: in vitro. Particulars: African green monkey.
A short description of series [5]: in vitro. Particulars: human.
Series [6] deals with KB (oral human epidermoid carcinoma, ATCC CCL-17). The note with it: KB cells; inactive = at the final concentration of 50 μg/mL.
The test system of series [7] is MCF-7 (human breast cancer, ATCC HTC-22). The note with it: MCF-7 cells; inactive = at the final concentration of 50 μg/mL.
In another series the target is Hsp90 ATPase. Details: method as in PMID 23124337. The note with it: isolated from Streptomyces hygroscopicus JCM4427; read-out: Hsp90 ATPase inhibition IC50; cited from earlier work.
Series [8] in a line: in vitro. The note with it: human. The source holds these as a separate data set.
In series [9] the test system is tested microorganisms used in this study. The series can be described thus: Antimicrobial activity test, tested microorganisms of this study. The format is cell-based. The note with it: at a concentration of 50 μg/mL.
The test system of series [10] is NCI-H187 (human small-cell lung cancer, ATCC CRL-5804). Particulars: NCI-H187 cells; inactive = at the final concentration of 50 μg/mL.
On the set-up of series [11]: method as in PMID 15844966. The note with it: final concentration of up to 200 μg/mL; cited from earlier work.
A further series relates to E. faecium. Set-up: method as in PMID 21376551. The note with it: cited from earlier work.
In a further series the test system is B. subtilis. Set-up: method as in PMID 21376551. Particulars: cited from earlier work.
In the next series the test system is V. alginolyticus. Set-up: method as in PMID 21376551. Particulars: cited from earlier work.
The subject of the next series is C. albicans. Details: method as in PMID 21376551. The note with it: cited from earlier work.
The next series relates to T-47D. Details: method as in PMID 21376551. The note with it: cited from earlier work.
Another series deals with SK-Mel-5. Details: method as in PMID 21376551. Particulars: cited from earlier work.
In a further series the test system is SK-Mel-28. Set-up: method as in PMID 21376551. Particulars: cited from earlier work.
The test system of a further series is PRMI-7951. Set-up: method as in PMID 21376551. Particulars: cited from earlier work.
In series [12] the test system is human histiocytic lymphoma U-937 cell line. Set-up: method as in PMID 11213294. The note with it: cited from earlier work.
Another series concerns oncostatin M signaling. The note with it: cell-based; cited from earlier work.
For series [13], the system named is Vero cells (African green monkey kidney fibroblasts, ATCC CCL-81). Particulars: inactive = at the final concentration of 50 μg/mL.

`CN[C@H](CC(C)C)C(=O)N[C@H]1C(=O)N[C@@H](CC(N)=O)C(=O)N[C@H]2C(=O)N[C@H]3C(=O)N[C@H](C(=O)N[C@H](C(=O)O)c4cc(O)cc(O)c4-c4cc3ccc4O)[C@H](O)c3ccc(c(Cl)c3)Oc3cc2cc(c3O[C@@H]2O[C@H](CO)[C@@H](O)[C@H](O)[C@H]2O[C@H]2C[C@](C)(N)[C@H](O)[C@H](C)O2)Oc2ccc(cc2Cl)[C@H]1O` [Vancomycin, reference compound] came in with an MIC in the series with Bacillus cereus (Bacillus cereus) of 2 µg/mL (≈ 1.38 µM).

The term IC50 denotes the point on the concentration scale where inhibition reaches its midpoint. As to `COC1=C2C[C@@H](C)C[C@H](OC)[C@H](O)[C@@H](C)/C=C(\C)[C@H](OC(N)=O)[C@@H](OC)/C=C\C=C(/C)C(=O)NC(=CC1=O)C2=O` [(1), geldanamycin], the “Anti-B. cereus MIC” value in the series with Bacillus cereus is “inactive”. Moreover, the “Anti-M. tuberculosis MIC” value in series [1] was “inactive”. Moreover, in [2], the “Anti-P. falciparum IC50” value is “inactive”. Moreover, the “in vivo anti-parasitic activity against Syphacia oblevata” value with Syphacia oblevata is given as “in vivo anti-parasitic activity”. Also, the “in vivo anti-parasitic activity against Plasmodium berghei” value with Plasmodium berghei is listed as “not against Plasmodium berghei”. Moreover, the “growth of HPV-18-positive HeLa cells” value in series [3] is on record as “inhibited the growth”. In the series on Setosphaeria turcica, the “antifungal activity against Setosphaeria turcica” value is reported as “antifungal activity”. This compound also came in with an IC50 in “in vitro [4]” of 0.094 µg/mL (≈ 0.168 µM).

In the series “in vitro [5]”, `CC/C(=C(\c1ccccc1)c1ccc(OCCN(C)C)cc1)c1ccccc1` [Tamoxifen, reference compound] yielded a half-inhibitory concentration (IC50) of 6.96 µg/mL (≈ 18.7 µM).

As for `CC[C@@H](CO)NCCN[C@@H](CC)CO` [Ethambutol, reference compound], the MIC in series [1] is 0.938 µg/mL (≈ 4.59 µM).

On to `C[C@H]1[C@@H](O)O[C@@H]2O[C@@]3(C)CC[C@H]4[C@H](C)CC[C@@H]1[C@@]24OO3` [Dihydroartemisinine, reference compound], for which the IC50 in [2] stood at 0.000702 µg/mL (≈ 0.00247 µM).

For `NNC(=O)c1ccncc1` [Isoniazid, reference compound], the MIC in series [1] is 0.047 µg/mL (≈ 0.343 µM).

`CO[C@H]1C[C@H](C)Cc2cc(O)cc(c2)NC(=O)/C(C)=C/CC[C@H](OC)[C@@H](OC(N)=O)/C(C)=C/[C@H](C)[C@H]1O` [(4), 17-demethoxyreblastatin]: the “Anti-B. cereus MIC” value with Bacillus cereus was “inactive”. In addition, the “Anti-M. tuberculosis MIC” value in [1] is “inactive”. Further, the “Anti-P. falciparum IC50” value in series [2] was “inactive”. The “Cytotoxicity IC50 KB” value in series [6] was “inactive”. Besides, the “Cytotoxicity IC50 MCF-7” value in series [7] was “inactive”. Also, the IC50 on Hsp90 ATPase is 1820 nM; in the series “in vitro [4]”, 13.5 µg/mL (≈ 26 µM); in the series “in vitro [8]”, 1.33 µg/mL (≈ 2.56 µM).

As for `OC(c1cc(C(F)(F)F)nc2c(C(F)(F)F)cccc12)C1CCCCN1` (stereo not drawn) [Mefloquine, reference compound], the IC50 in series [2] came to 0.024 µg/mL (≈ 0.0634 µM).

Turning to `O=C1CCC(=O)N(O)CCCCCNC(=O)CCC(=O)N(O)CCCCCNC(=O)CCC(=O)N(O)CCCCCN1` [(5), nocardamine], the “Anti-B. cereus MIC” value with Bacillus cereus is “inactive”. Further, the “Anti-M. tuberculosis MIC” value in series [1] was “inactive”. For the same compound, the “Anti-P. falciparum IC50” value in series [2] is “inactive”. For the same compound, the “antimicrobial activity against tested microorganisms” value in series [9] was “inactive”. The “Cytotoxicity IC50 KB” value in series [6] is “inactive”. Moreover, the “Cytotoxicity IC50 NCI-H187” value in [10] is “inactive”. The “Cytotoxicity IC50 MCF-7” value in [7] is “inactive”. Besides, the antimicrobial activity entry in [11] is reported as “no antimicrobial activity”. Besides, the “antimicrobial activity against E. faecium” value with E. faecium is given as “weak antimicrobial activity”. The “antimicrobial activity against B. subtilis” value with B. subtilis is listed as “weak antimicrobial activity”. The “antimicrobial activity against V. alginolyticus” value in the series with V. alginolyticus is given as “no activity”. In the series on C. albicans, the “antimicrobial activity against C. albicans” value is “no activity”. Moreover, in the series with T-47D, the “cell proliferation of T-47D” value was “did not inhibit cell proliferation” and the “colony formation of T-47D” value is “did inhibit their colony formation”. Further, in the series with SK-Mel-5, the “cell proliferation of SK-Mel-5” value was “did not inhibit cell proliferation” and the “colony formation of SK-Mel-5” value was “did inhibit their colony formation”. Moreover, in the series on SK-Mel-28, the “cell proliferation of SK-Mel-28” value is given as “did not inhibit cell proliferation” and the “colony formation of SK-Mel-28” value is “did inhibit their colony formation”. In addition, in the series with PRMI-7951, the “cell proliferation of PRMI-7951” value is on record as “did not inhibit cell proliferation” and the “colony formation of PRMI-7951” value is recorded as “did inhibit their colony formation”. Also, the IC50 in the series “in vitro [4]” is 16.6 µg/mL (≈ 27.6 µM).

In the case of `COc1c(O)cc2cc1C[C@@H](C)C[C@H](OC)[C@H](O)[C@@H](C)/C=C(\C)[C@H](OC(N)=O)[C@@H](OC)CC/C=C(\C)C(=O)N2` [(3), reblastatin], the “Anti-B. cereus MIC” value in the series with Bacillus cereus is “inactive”. Also, the “Anti-M. tuberculosis MIC” value in series [1] is “inactive”. Also, in series [2], the “Anti-P. falciparum IC50” value was “inactive”. The “inhibition of proliferation of U-937 IC50” value in series [12] was 0.43 µg/mL. Besides, the IC50 with oncostatin M signaling is 160 nM; on Hsp90 ATPase, 320 nM; in “in vitro [4]” it was 7.75 µg/mL (≈ 14.1 µM).

As for `CO[C@H]1/C=C/O[C@@]2(C)Oc3c(C)c(O)c4c(O)c(c(/C=N/N5CCN(C)CC5)c(O)c4c3C2=O)NC(=O)/C(C)=C\C=C\[C@H](C)[C@H](O)[C@@H](C)[C@@H](O)[C@@H](C)[C@H](OC(C)=O)[C@@H]1C` [Rifampicin, reference compound], the MIC in series [1] was 0.013 µg/mL (≈ 0.0158 µM).

With `CO[C@H]1/C=C\C=C(/C)C(=O)NC2=CC(=O)C(O)=C(C[C@@H](C)C[C@H](OC)[C@H](O)[C@@H](C)/C=C(\C)[C@@H]1OC(N)=O)C2=O` [(2), 17-O-demethylgeldanamycin], in the series on Bacillus cereus, the “Anti-B. cereus MIC” value was “inactive”. The “Anti-M. tuberculosis MIC” value in series [1] was “inactive”. In addition, the “Anti-P. falciparum IC50” value in series [2] is “inactive”. In [6], the “Cytotoxicity IC50 KB” value was “inactive”. Further, the “Cytotoxicity IC50 MCF-7” value in series [7] was “inactive”. Further, the IC50 amounted to 6.43 µg/mL (≈ 11.8 µM) in the series “in vitro [4]” and 4.25 µg/mL (≈ 7.78 µM) in the series “in vitro [8]”.

With `O=C1CCC(=O)NCCCCCN(O)C(=O)CCC(=O)NCCCCCN(O)C(=O)CCC(=O)NCCCCCN1` [(6), dehydroxynocardamine], the “Anti-B. cereus MIC” value in the series on Bacillus cereus was “inactive”. For the same compound, the “Anti-M. tuberculosis MIC” value in series [1] was “inactive”. Also, in series [2], the “Anti-P. falciparum IC50” value was “inactive”. Besides, in series [9], the “antimicrobial activity against tested microorganisms” value was “inactive”. The “Cytotoxicity IC50 Vero” value in [13] was “inactive”. In series [6], the “Cytotoxicity IC50 KB” value was “inactive”. The “Cytotoxicity IC50 MCF-7” value in series [7] was “inactive”. The antimicrobial activity entry in series [11] is given as “no antimicrobial activity”. Inhibition in the series “in vitro [8]” was half-maximal at 14 µg/mL (≈ 23.9 µM) (IC50).

Take `CC1COc2c(N3CCN(C)CC3)c(F)cc3c(=O)c(C(=O)O)cn1c23` (stereo not drawn) [Ofloxacin, reference compound]: the MIC in series [1] came to 0.391 µg/mL (≈ 1.08 µM).

With `Cc1c2ccncc2c(C)c2c1[nH]c1ccccc12` [Ellipticine, reference compound], the IC50 in the series “in vitro [4]” stood at 1.58 µg/mL (≈ 6.41 µM).
